Experimental data: patent US7772208B2, “2′,3′-dideoxynucleoside analogues for the treatment or prevention of Flaviviridae infections” (Pharmasset, Inc., priority 2002, dated 2010)
Where a name gives a salt, the structure may show the parent alone.

Columns and labels:
[1] = target: T1, NS5B enzyme (HCV polymerase, NS5Bt) (Hepatitis C virus genotype 1a, UniProt P27958); experiment: HCV polymerase (RdRp) inhibition assay; assay type: biochemical; conditions: for inhibition when treated: FIG. 4; for change of inhibition with increase in manganese concentration: FIG. 5
T1 construct: added a methionine and alanine to the N terminus and truncated the C-terminal 21 amino acids, replacing them with a hexahistidine tag; hexahistidine (C); made in house; host or cells: E. coli BL21(DE3)pLysS, plasmid pRSK1 in pET32a
Description: The HCV NS5B gene was amplified from a genotype 1A, clone, p134/pBRTM 2029-3011 (ΔAvrII). The primers used added a methionine and alanine to the N terminus and truncated the C-terminal 21 amino acids, replacing them with a hexahistidine tag, which allowed increased soluble product in E. coli and metal affinity purification. The PCR product was cloned into the pET32a expression construct (Novagen) at the NcoI and BamHI sites and the resultant plasmid (pRSK1) was sequenced by the Stanford PAN facility using standard methods. […] (DE3)pLysS cells (Novagen) were transformed by pRSK1 and grown at 37° C. to an optical density of 0.1, at which time the cells were switched to room temperature. At an optical density of 0.3-0.5, isopropyl-β-D-thiogalactopyanoside was added to a final concentration of 0.5 mM and the cells were harvested after 6 h. The cell pellet was frozen, thawed and resuspended in buffer containing 50 mM sodium phosphate pH 7.0, 10% glycerol, 0.3 M NaCl, 2 mM β-mercaptoethanol, 0.5% β-octyl-glucoside. The cell extract was sonicated, and cellular debris removed by centrifugation. The extract was incubated batch-wise with Talon metal affinity resin (Clontech), washed extensively with the above buffer, and then poured into a column for a stepwise imidazole elution. The polymerase, referred to as NS5Bt, eluted specifically between 70 mM and 250 mM imidazole and was ˜90% pure.
RdRp assays were a modification of the assays described in Kao et al. (Kao, C, C.; Yang, X.; Kline, A.; Wang, Q. M.; Barket, D.; Heinz, B. A. (2000) J. Virol. 74, 11121-11128). The template used allows for de novo synthesis and has its 3′ termini blocked by puromycin, which largely prevents the high molecular weight product from forming and allows for predominantly 24- and 25-nucleotide products to be seen. Each reaction contained 50 mM Hepes-NaOH pH 8.0, 0.65 μM template, 0.1 μM purified NS5Bt described above, 250 μM GTP, 5 μM UTP, 0.6 μM CTP, and 1 μM [αP32] ATP, 0.5 mM MnCl2, 7 mM MgCl2, 18 mM DTT, and the stated concentration of the analog. Reaction mixes were incubated at 27° C. for 45 min. Reactions were terminated by the addition of ⅕ the volume of 5× proteinase K mix (250 μg proteinase K/ml [Sigma, St Louis, Mo.], 375 mM Hepes-NaOH pH 8, 0.5% SDS, 25 mM EDTA) and incubated for 10 min at 37° C. Reactions were then precipitated with isopropanol, and glycogen as a carrier, and washed twice with 70% ethanol to remove salt. The RNA was resuspended in formamide loading buffer, heated to 65° C. for 3 min and loaded on a 20% acrylamide/7 M urea/TBE denaturing gel and separated by electrophoresis at 50° C. Quantification of bands was performed using Phosphoimager analysis.

HCV protease = conditions: SDS-PAGE and autoradiography assay; cited from earlier work

T1 sequence (P27958 2421-2990): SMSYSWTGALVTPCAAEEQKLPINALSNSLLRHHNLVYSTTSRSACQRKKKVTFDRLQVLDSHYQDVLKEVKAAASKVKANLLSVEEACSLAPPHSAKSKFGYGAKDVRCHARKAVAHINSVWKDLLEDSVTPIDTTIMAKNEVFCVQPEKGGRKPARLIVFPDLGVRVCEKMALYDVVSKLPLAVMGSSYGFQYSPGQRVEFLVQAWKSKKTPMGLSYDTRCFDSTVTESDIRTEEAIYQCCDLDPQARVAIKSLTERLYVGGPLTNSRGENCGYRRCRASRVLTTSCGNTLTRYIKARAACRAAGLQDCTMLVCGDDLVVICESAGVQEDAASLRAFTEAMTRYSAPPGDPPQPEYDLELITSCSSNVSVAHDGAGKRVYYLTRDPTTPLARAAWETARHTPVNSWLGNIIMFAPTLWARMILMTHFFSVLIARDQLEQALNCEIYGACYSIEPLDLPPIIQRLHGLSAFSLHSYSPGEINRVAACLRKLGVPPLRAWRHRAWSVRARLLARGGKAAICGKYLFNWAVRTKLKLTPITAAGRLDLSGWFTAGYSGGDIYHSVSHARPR

Row | Structure (SMILES) | inhibition of NS5B enzyme ([1]; FIG. 2 and FIG. 3, triphosphate) | inhibition when treated [1] | change of inhibition with increase in manganese concentration [1] | activity against HCV protease (HCV protease)
1 | Nc1nc(=O)n([C@@H]2CC[C@H](COP(=O)(O)OP(=O)(O)OP(=O)(O)O)O2)cc1F [β-L-ddFC triphosphate, β-L-2′,3′-Dideoxy-5-fluorocytidine triphosphate, triethylammonium salt] | dose-dependent inhibition | – | – | –
2 | Nc1ccn([C@@H]2CC[C@H](CO)O2)c(=O)n1 [L-ddC, β-L-2′,3′-dideoxycytidine] | – | no inhibition | not affected | –
3 | Nc1nc(=O)n([C@@H]2CC[C@H](CO)O2)cc1F [L-ddFC, β-L-2′,3′-Dideoxy-5-fluorocytidine] | – | dose-dependent inhibition | increase of inhibition | –
4 | CCCC(=O)c1cc2c(c(O)c1C)C(=O)C(=O)c1c(O)cccc1-2 [Sch 68631] | – | – | – | micromolar activity
